Data from article PMC5576976 (Translational Oncology, 2017).

Molecular target: IMP1 (insulin-like growth factor-2 mRNA-binding protein 1) (Homo sapiens, UniProt Q9NZI8)
Test: fluorescence anisotropy/polarization microplate assay

IMP1 (insulin-like growth factor-2 mRNA-binding protein 1), sequence (Q9NZI8 whole entry): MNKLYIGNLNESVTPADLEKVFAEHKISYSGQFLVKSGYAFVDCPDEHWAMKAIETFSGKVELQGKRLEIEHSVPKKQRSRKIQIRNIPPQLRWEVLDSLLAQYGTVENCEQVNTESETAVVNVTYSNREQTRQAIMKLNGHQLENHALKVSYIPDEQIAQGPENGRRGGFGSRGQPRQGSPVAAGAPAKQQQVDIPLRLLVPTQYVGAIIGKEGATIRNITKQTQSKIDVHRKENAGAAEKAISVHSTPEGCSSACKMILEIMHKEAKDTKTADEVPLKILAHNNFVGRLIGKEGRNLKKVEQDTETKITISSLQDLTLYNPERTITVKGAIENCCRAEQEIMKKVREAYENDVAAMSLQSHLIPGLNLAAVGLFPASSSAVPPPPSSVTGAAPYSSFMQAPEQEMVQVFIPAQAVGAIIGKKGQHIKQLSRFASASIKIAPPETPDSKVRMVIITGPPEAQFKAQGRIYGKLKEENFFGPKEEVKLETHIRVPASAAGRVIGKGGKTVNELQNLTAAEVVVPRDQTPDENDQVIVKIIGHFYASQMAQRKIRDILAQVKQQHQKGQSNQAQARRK

- IC50: 5 µM
SMILES: NC(=O)c1ccccc1N=Cc1ccc(Br)s1 [BTYNB, 2-{[(5-bromo-2-thienyl)methylene]amino}benzamide]
